Test results taken from patent publication US20250042881A1, “CCR6 RECEPTOR MODULATORS” (Idorsia Pharmaceuticals Ltd, priority 2021, published 2025).

Molecular target: T1, human CCR6 (Homo sapiens, UniProt P51684)
T1 construct: expressed in transfected cells; host or cells: HEK-293
T1 sequence (P51684 1-374): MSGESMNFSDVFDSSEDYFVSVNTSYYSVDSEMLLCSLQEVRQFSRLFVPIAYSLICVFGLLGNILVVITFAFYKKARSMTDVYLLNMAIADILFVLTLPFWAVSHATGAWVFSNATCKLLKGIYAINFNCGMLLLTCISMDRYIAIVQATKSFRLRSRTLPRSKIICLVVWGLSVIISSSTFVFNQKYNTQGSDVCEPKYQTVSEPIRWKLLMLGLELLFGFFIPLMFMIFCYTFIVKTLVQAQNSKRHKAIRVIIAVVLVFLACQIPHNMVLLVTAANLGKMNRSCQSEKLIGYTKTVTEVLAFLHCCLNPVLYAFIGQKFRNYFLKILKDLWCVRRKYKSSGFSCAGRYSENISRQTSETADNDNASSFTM
Assay: FLIPR assay: inhibition of CCL20-induced calcium signal in HEK-293 cells expressing human CCR6
Format: cell-based
Details: engineered HEK-293 cells expressing human CCR6; agonist CCL20 10 nM; 30 min preincubation; Fluo-8-AM; mean values if determined several times
Description: FLIPR assay: The bioactivity of compounds is tested in a fluorometric imaging plate reader (FLIPR: Molecular Devices) using engineered HEK-293 cells expressing the human CCR6 (GenBank: AY242126). Frozen cells are plated on Poly-L-Lysine precoated 384-well plates 2 days prior to bioassay in DMEM medium supplemented with 10% FCS and 1% Penicillin-Streptomycin. At the day of bioassay, cell supernatant is discarded and cells are dye loaded for 30 minutes at room temperature in the dark with Fluo-8-AM (Focus Biomolecules) in Hanks Balanced Salt Solution (Gibco), buffered with 20 mM Hepes at pH 6.75 and supplemented with 0.05% BSA. This buffer, but lacking the dye, is also used for washing and compound dilution steps (assay buffer). Cells are washed free of excess dye with a wash-station (Biotek), leaving 40 microliter of assay buffer at the end. Cells were incubated for 15 minutes at room temperature in the dark, before adding compounds. Stock solutions of test compounds are made up at a concentration of 10 mM in DMSO, and serially diluted first in DMSO and then transferred in assay buffer to concentrations required for inhibition dose response curves. After a 45 minute incubation period in assay buffer at room temperature, 10 microliters of each compound dilution are transferred from a compound plate to the plate containing the recombinant cells in the FLIPR instrument according to the manufacturer's instructions. After cells and compounds were preincubated for 30 minutes at room temperature in the dark, 10 microliter agonist CCL20 (Peprotech) at a final concentration of 10 nM is added, again using the FLIPR instrument. Changes in fluorescence are monitored before and after addition of the test compounds and agonist. Emission peak values above base level after CCL20 addition are exported after base line subtraction. The calculated IC50 values may fluctuate depending on the daily assay performance. Fluctuations of this kind are known to those skilled in the art. In the case where IC50 values have been determined several times for the same compound, mean values are given.

IC50 [nM] | Compound
114 | CN1CC(C)([C@](O)(c2ccc(OC(F)(F)F)cc2)c2cncc(-c3nc(C4CCOCC4)n(C4CC4)n3)c2)C1 [Example 4, (R)-{5-[1-Cyclopropyl-5-(tetrahydro-pyran-4-yl)-1H-[1,2,4]triazol-3-yl]-pyridin-3-yl}-(1,3-dimethyl-azetidin-3-yl)-(4-trifluoromethoxy-phenyl)-methanol]
94.8 | CC(C)c1ccc([C@](O)(c2cncc(-c3nc(C4CCOCC4)n(C(C)C)n3)c2)C2(C)CN(C)C2)cc1 [Example 19, (R)-(1,3-Dimethyl-azetidin-3-yl)-(4-isopropyl-phenyl)-{5-[1-isopropyl-5-(tetrahydro-pyran-4-yl)-1H-[1,2,4]triazol-3-yl]-pyridin-3-yl}-methanol]
166 | CCn1nc(-c2cncc([C@@](O)(c3ccc(C(C)C)cc3)C3(C)CN(C)C3)c2)nc1C1CCOCC1 [Example 18, (R)-(1,3-Dimethyl-azetidin-3-yl)-{5-[1-ethyl-5-(tetrahydro-pyran-4-yl)-1H-[1,2,4]triazol-3-yl]-pyridin-3-yl}-(4-isopropyl-phenyl)-methanol]
182 | CC(=O)N1CCC(c2nc(-c3cncc([C@@](O)(c4ccc(C(C)C)cc4)C4(C)CN(C)C4)c3)nn2C(C)C)CC1 [Example 33, 1-[4-(5-{5-[(R)-(1,3-Dimethyl-azetidin-3-yl)-hydroxy-(4-isopropyl-phenyl)-methyl]-pyridin-3-yl}-2-isopropyl-2H-[1,2,4]triazol-3-yl)-piperidin-1-yl]-ethanone]
193 | CC(C)c1ccc([C@](O)(c2cncc(-c3nc(C4(C)CCNC(=O)C4)n(C(C)C)n3)c2)C2(C)CN(C)C2)cc1 (stereo partly drawn) [Example 45, 4-(5-{5-[(R)-(1,3-Dimethyl-azetidin-3-yl)-hydroxy-(4-isopropyl-phenyl)-methyl]-pyridin-3-yl}-2-isopropyl-2H-[1,2,4]triazol-3-yl)-4-methyl-piperidin-2-one]
115 | CC(=O)N[C@H]1CC[C@H](c2nc(-c3cncc([C@@](O)(c4ccc(C(C)C)cc4)C4(C)CN(C)C4)c3)nn2C(C)C)CC1 [Example 43, N-[4-(5-{5-[(R)-(1,3-Dimethyl-azetidin-3-yl)-hydroxy-(4-isopropyl-phenyl)-methyl]-pyridin-3-yl}-2-isopropyl-2H-[1,2,4]triazol-3-yl)-trans-cyclohexyl]-acetamide]
46.4 | CC(C)c1ccc([C@](O)(c2cncc(-c3nc(C(C)(C)O)n(C4CC4)n3)c2)C2(C)CN(C)C2)cc1 [Example 26, 2-(2-Cyclopropyl-5-{5-[(R)-(1,3-dimethyl-azetidin-3-yl)-hydroxy-(4-isopropyl-phenyl)-methyl]-pyridin-3-yl}-2H-[1,2,4]triazol-3-yl)-propan-2-ol]
104 | CC(C)c1ccc([C@](O)(c2cncc(-c3nc(C(C)(C)O)n(C4CC4)n3)c2)C2(C)CNC2)cc1 [Example 37, 2-(2-Cyclopropyl-5-{5-[(R)-hydroxy-(4-isopropyl-phenyl)-(3-methyl-azetidin-3-yl)-methyl]-pyridin-3-yl}-2H-[1,2,4]triazol-3-yl)-propan-2-ol]
45.3 | CCCc1nc(-c2cncc([C@@](O)(c3ccc(C(C)C)cc3)C3(C)CN(C)C3)c2)nn1C(C)C [Example 41, (R)-(1,3-Dimethyl-azetidin-3-yl)-(4-isopropyl-phenyl)-[5-(1-isopropyl-5-propyl-1H-[1,2,4]triazol-3-yl)-pyridin-3-yl]-methanol]
50.1 | CC(C)c1ccc([C@](O)(c2cncc(-c3nc(-c4cccnc4)n(C4CC4)n3)c2)C2(C)CN(C)C2)cc1 [Example 24, (R)-[5-(1-Cyclopropyl-5-pyridin-3-yl-1H-[1,2,4]triazol-3-yl)-pyridin-3-yl]-(1,3-dimethyl-azetidin-3-yl)-(4-isopropyl-phenyl)-methanol]
182 | CN1CC(C)([C@](O)(c2ccc(CC(F)(F)F)cc2)c2cncc(-c3nc(C4CCOCC4)n(C4CC4)n3)c2)C1 [Example 5, (R)-{5-[1-Cyclopropyl-5-(tetrahydro-pyran-4-yl)-1H-[1,2,4]triazol-3-yl]-pyridin-3-yl}-(1,3-dimethyl-azetidin-3-yl)-[4-(2,2,2-trifluoro-ethyl)-phenyl]-methanol]
200 | CC(C)c1ccc([C@](O)(c2cncc(-c3nc(C4CCN(C)C(=O)C4)n(C(C)C)n3)c2)C2(C)CN(C)C2)cc1 (stereo partly drawn) [Example 42, 4-(5-{5-[(R)-(1,3-Dimethyl-azetidin-3-yl)-hydroxy-(4-isopropyl-phenyl)-methyl]-pyridin-3-yl}-2-isopropyl-2H-[1,2,4]triazol-3-yl)-1-methyl-piperidin-2-one]
78.1 | CC(C)c1ccc([C@](O)(c2cncc(-c3nc(C4CCOCC4)n(C4CC4)n3)c2)C2(C)CN(C)C2)cc1F [Example 38, (R)-{5-[1-Cyclopropyl-5-(tetrahydro-pyran-4-yl)-1H-[1,2,4]triazol-3-yl]-pyridin-3-yl}-(1,3-dimethyl-azetidin-3-yl)-(3-fluoro-4-isopropyl-phenyl)-methanol]
78.7 | CC(C)c1ccc([C@](O)(c2cncc(-c3nc(C45CC(CO)(C4)C5)n(C(C)C)n3)c2)C2(C)CN(C)C2)cc1 [Example 29, (R)-(1,3-Dimethyl-azetidin-3-yl)-{5-[5-(3-hydroxymethyl-bicyclo[1.1.1]pent-1-yl)-1-isopropyl-1H-[1,2,4]triazol-3-yl]-pyridin-3-yl}-(4-isopropyl-phenyl)-methanol]
22.2 | CC(C)c1ccc([C@](O)(c2cncc(-c3nc([C@@](C)(O)C(F)(F)F)n(C4CC4)n3)c2)C2(C)CN(C)C2)cc1 [Example 9, (R)-2-(2-Cyclopropyl-5-{5-[(R)-(1,3-dimethyl-azetidin-3-yl)-hydroxy-(4-isopropyl-phenyl)-methyl]-pyridin-3-yl}-2H-[1,2,4]triazol-3-yl)-1,1,1-trifluoro-propan-2-ol]
519 | CNC(C)(C)c1nc(-c2cncc([C@@](O)(c3ccc(C(C)C)cc3)C3(C)CN(C)C3)c2)nn1C1CC1 [Example 11, (R)-{5-[1-Cyclopropyl-5-(1-methyl-1-methylamino-ethyl)-1H-[1,2,4]triazol-3-yl]-pyridin-3-yl}-(1,3-dimethyl-azetidin-3-yl)-(4-isopropyl-phenyl)-methanol]
98.5 | CC(C)c1ccc([C@](O)(c2cncc(-c3nc([C@H]4CC[C@H](O)CC4)n(C4CC4)n3)c2)C2(C)CN(C)C2)cc1 [Example 8, trans-4-(2-Cyclopropyl-5-{5-[(R)-(1,3-dimethyl-azetidin-3-yl)-hydroxy-(4-isopropyl-phenyl)-methyl]-pyridin-3-yl}-2H-[1,2,4]triazol-3-yl)-cyclohexanol]
116 | CC(C)c1ccc([C@](O)(c2cncc(-c3nc(C4CCOCC4)n(C4CC4)n3)c2)C2(C)CN(CCO)C2)cc1 [Example 36, 2-{3-[(R)-{5-[1-Cyclopropyl-5-(tetrahydro-pyran-4-yl)-1H-[1,2,4]triazol-3-yl]-pyridin-3-yl}-hydroxy-(4-isopropyl-phenyl)-methyl]-3-methyl-azetidin-1-yl}-ethanol]
163 | CN1CC(C)([C@](O)(c2ccc(C3CC3)cc2)c2cncc(-c3nc(C4CCOCC4)n(C4CC4)n3)c2)C1 [Example 25, (R)-(4-Cyclopropyl-phenyl)-{5-[1-cyclopropyl-5-(tetrahydro-pyran-4-yl)-1H-[1,2,4]triazol-3-yl]-pyridin-3-yl}-(1,3-dimethyl-azetidin-3-yl)-methanol]
